Data from ChEMBL document CHEMBL1152592, “Design, synthesis and biological evaluations of novel 7-[3-(1-aminocycloalkyl)pyrrolidin-1-yl]-6-desfluoro-8-methoxyquinolones with potent antibacterial activity against multi-drug resistant Gram-positive bacteria” (Bioorg Med Chem, 2009).
In brackets after ≈: the same amount, converted by molar mass.

Experiments:
[1] = tested on: Escherichia coli; assay: Antibacterial activity against Escherichia coli NIHJ after 18 hrs by twofold microbroth dilution method; format: functional
[2] = Aqueous […] of the compound; format: physicochemical; conditions: aqueous (not further specified)
[3] = tested on: Mus musculus; assay: Toxicity in Slc:ddY mouse at 100 mg/kg, iv; format: organism-based; set-up: dose 100 mg/kg, route intravenous; conditions: in vivo
[4] = tested on: Klebsiella pneumoniae; assay: Antibacterial activity against Klebsiella pneumoniae type 2 after 18 hrs by twofold microbroth dilution method; format: functional; conditions: type 2, 18 h
[5] = tested on: Enterococcus faecalis; assay: Antibacterial activity against Enterococcus faecalis ATCC 19433 after 18 hrs by twofold microbroth dilution method; format: functional; conditions: ATCC19433, 18 h
[6] = tested on: Staphylococcus epidermidis; assay: Antibacterial activity against Staphylococcus epidermidis 56500 after 18 hrs by twofold microbroth dilution method; format: functional; conditions: Staphylococcus epidermidis, 56500, 18 h
[7] = tested on: Mus musculus; assay: Toxicity in Slc:ddY mouse at 50 mg/kg, iv; format: organism-based; set-up: dose 50 mg/kg, route intravenous; conditions: in vivo
[8] = tested on: Streptococcus pyogenes; assay: Antibacterial activity against Streptococcus pyogenes G-36 after 18 hrs by twofold microbroth dilution method; format: functional; conditions: G-36, 18 h
[9] = tested on: Streptococcus mitis; assay: Antibacterial activity against Streptococcus mitis IID685 after 18 hrs by twofold microbroth dilution method; format: functional; conditions: IID685, 18 h
[10] = Inhibition of Staphylococcus aureus DNA topoisomerase 4 Ser80Phe mutant
[11] = tested on: Staphylococcus aureus; assay: Antibacterial activity against levofloxacin, methicillin-resistant Staphylococcus aureus after 18 hrs by twofold microbroth dilution method; format: functional
[12] = target: DNA gyrase subunit A (Staphylococcus aureus, UniProt P20831, S84L); assay: Inhibition of Staphylococcus aureus DNA gyrase Ser84Leu mutant
[13] = Inhibition of Staphylococcus aureus wild type DNA topoisomerase 4
[14] = tested on: Staphylococcus aureus; assay: Antibacterial activity against Staphylococcus aureus FDA 209-P after 18 hrs by twofold microbroth dilution method; format: functional
[15] = tested on: Mus musculus; assay: Toxicity in Slc:ddY mouse assessed as micronucleated reticulocyte in blood at 100 mg/kg, iv after 48 hrs of treatment by fluorescence microscopy; format: organism-based; set-up: dose 100 mg/kg, route intravenous; conditions: in vivo
[16] = tested on: Streptococcus pneumoniae; assay: Antibacterial activity against Streptococcus pneumoniae J-24 after 18 hrs by twofold microbroth dilution method; format: functional; conditions: J-24, 18 h
[17] = tested on: Pseudomonas aeruginosa; assay: Antibacterial activity against Pseudomonas aeruginosa PAO1 after 18 hrs by twofold microbroth dilution method; format: functional; conditions: PAO1, 18 h
[18] = tested on: Streptococcus pneumoniae; assay: Antibacterial activity against penicillin-intermediate resistant Streptococcus pneumoniae after 18 hrs by twofold microbroth dilution method; format: functional
[19] = tested on: Enterococcus faecalis; assay: Antibacterial activity against vancomycin-resistant Enterococcus faecalis after 18 hrs by twofold microbroth dilution method; format: functional
[20] = tested on: Enterococcus faecium; assay: Antibacterial activity against vancomycin-resistant Enterococcus faecium after 18 hrs by twofold microbroth dilution method; format: functional
[21] = tested on: Staphylococcus aureus; assay: Antibacterial activity against ciprofloxacin, methicillin-resistant Staphylococcus aureus after 18 hrs by twofold microbroth dilution method; format: functional
[22] = tested on: Mus musculus; assay: Toxicity in Slc:ddY mouse at 150 mg/kg, iv; format: organism-based; set-up: dose 150 mg/kg, route intravenous; conditions: in vivo
[23] = tested on: Mus musculus; assay: Toxicity in Slc:ddY mouse assessed as micronucleated reticulocyte in blood at 50 mg/kg, iv after 48 hrs of treatment by fluorescence microscopy; format: organism-based; set-up: dose 50 mg/kg, route intravenous; conditions: in vivo
[24] = tested on: Staphylococcus aureus; assay: Selectivity ratio of IC50 for Staphylococcus aureus DNA topoisomerase 4 Ser80Phe mutant to IC50 for Staphylococcus aureus wild type DNA topoisomerase 4
[25] = tested on: Staphylococcus aureus; assay: Selectivity ratio of IC50 for Staphylococcus aureus DNA gyrase Ser84Leu mutant to IC50 for Staphylococcus aureus wild type DNA gyrase
[26] = target: DNA gyrase (Staphylococcus aureus, UniProt P0A0K8+P20831); assay: Inhibition of Staphylococcus aureus wild type DNA gyrase; format: protein-complex assay

MIC [1] | solubility [2] | MIC [4] | MIC [5] | MIC [6] | MIC [8] | MIC [9] | MIC [14] | MIC [16] | MIC [17] | Structure (SMILES) | Activity [3] | MIC50 [11] | MIC80 [11] | MIC90 [11] | other results
0.012 µg/mL (≈ 0.0308 µM) | 89 µg/mL (≈ 229 µM) | 0.05 µg/mL (≈ 0.128 µM) | 0.05 µg/mL (≈ 0.128 µM) | 0.012 µg/mL (≈ 0.0308 µM) | 0.012 µg/mL (≈ 0.0308 µM) | 0.025 µg/mL (≈ 0.0642 µM) |  |  |  | COc1c(N2CC[C@@H]([C@H](C)N)C2)c(F)cc2c(=O)c(C(=O)O)cn(C3CC3)c12 | Toxic |  |  |  | Activity [7]: Toxic
 |  |  |  |  |  |  |  |  |  | C[C@H]1COc2c(N3CCN(C)CC3)c(F)cc3c(=O)c(C(=O)O)cn1c23.C[C@H]1COc2c(N3CCN(C)CC3)c(F)cc3c(=O)c(C(=O)O)cn1c23.O [LEVOFLOXACIN] |  | 16 µg/mL | > 64 µg/mL | > 64 µg/mL | IC50 [10]: 57.1 µg/mL; IC50 [12]: > 1380 µM; IC50 [13]: 2.67 µg/mL
0.006 µg/mL (≈ 0.0144 µM) | 161 µg/mL (≈ 388 µM) | 0.05 µg/mL (≈ 0.12 µM) | 0.05 µg/mL (≈ 0.12 µM) | 0.012 µg/mL (≈ 0.0289 µM) | 0.012 µg/mL (≈ 0.0289 µM) | 0.003 µg/mL (≈ 0.00722 µM) | ≤ 0.003 µg/mL | 0.006 µg/mL (≈ 0.0144 µM) | 0.39 µg/mL (≈ 0.939 µM) | CNC1([C@@H]2CCN(c3ccc4c(=O)c(C(=O)O)cn([C@@H]5C[C@@H]5F)c4c3OC)C2)CC1 | Non-toxic |  |  |  | Activity [15]: Non-toxic
 |  |  |  |  |  |  |  |  |  | CN[C@H](CC(C)C)C(=O)N[C@H]1C(=O)N[C@@H](CC(N)=O)C(=O)N[C@H]2C(=O)N[C@H]3C(=O)N[C@H](C(=O)N[C@H](C(=O)O)c4cc(O)cc(O)c4-c4cc3ccc4O)[C@H](O)c3ccc(c(Cl)c3)Oc3cc2cc(c3O[C@@H]2O[C@H](CO)[C@@H](O)[C@H](O)[C@H]2O[C@H]2C[C@](C)(N)[C@H](O)[C@H](C)O2)Oc2ccc(cc2Cl)[C@H]1O [VANCOMYCIN] |  | 1 µg/mL (≈ 0.69 µM) | 1 µg/mL (≈ 0.69 µM) | 1 µg/mL (≈ 0.69 µM) | MIC50 [18]: 0.5 µg/mL (≈ 0.345 µM); MIC90 [18]: 0.5 µg/mL (≈ 0.345 µM); MIC50 [19]: > 128 µg/mL; MIC90 [19]: > 128 µg/mL; MIC50 [20]: > 128 µg/mL; MIC90 [20]: > 128 µg/mL; MIC50 [21]: 1 µg/mL (≈ 0.69 µM); MIC90 [21]: 2 µg/mL (≈ 1.38 µM)
≤ 0.003 µg/mL |  | 0.025 µg/mL (≈ 0.06 µM) | 0.2 µg/mL (≈ 0.48 µM) | 0.05 µg/mL (≈ 0.12 µM) | 0.2 µg/mL (≈ 0.48 µM) | 0.1 µg/mL (≈ 0.24 µM) | 0.013 µg/mL (≈ 0.0312 µM) | 0.05 µg/mL (≈ 0.12 µM) | 0.2 µg/mL (≈ 0.48 µM) | N[C@@H]1[C@H]2CN(c3nc4c(cc3F)c(=O)c(C(=O)O)cn4-c3ccc(F)cc3F)C[C@@H]12 [TROVAFLOXACIN] |  |  |  |  | 
≤ 0.003 µg/mL | 180 µg/mL (≈ 415 µM) | 0.025 µg/mL (≈ 0.0577 µM) | 0.025 µg/mL (≈ 0.0577 µM) | ≤ 0.003 µg/mL | 0.003 µg/mL (≈ 0.00692 µM) | 0.003 µg/mL (≈ 0.00692 µM) | ≤ 0.003 µg/mL | ≤ 0.003 µg/mL | 0.39 µg/mL (≈ 0.9 µM) | COc1c(N2CC[C@@H](C3(N)CCC3)C2)c(F)cc2c(=O)c(C(=O)O)cn([C@@H]3C[C@@H]3F)c12 |  |  |  |  | Activity [22]: Toxic

Structure (SMILES) | MIC [1] | solubility [2] | MIC [4] | MIC [5] | MIC [6] | MIC [8] | MIC [9] | MIC [14] | MIC [16] | MIC [17] | Activity [3] | MIC50 [11] | MIC80 [11] | MIC90 [11] | other results
COc1c(N2CC[C@@H]([C@H](C)N)C2)ccc2c(=O)c(C(=O)O)cn(C3CC3)c12 | 0.012 µg/mL (≈ 0.0323 µM) | > 10000 µg/mL | 0.1 µg/mL (≈ 0.269 µM) | 0.05 µg/mL (≈ 0.135 µM) | 0.006 µg/mL (≈ 0.0162 µM) | 0.012 µg/mL (≈ 0.0323 µM) | 0.006 µg/mL (≈ 0.0162 µM) | ≤ 0.003 µg/mL | ≤ 0.003 µg/mL | 0.2 µg/mL (≈ 0.538 µM) | Toxic | 0.5 µg/mL (≈ 1.35 µM) | 8 µg/mL (≈ 21.5 µM) | 8 µg/mL (≈ 21.5 µM) | Activity [22]: Toxic; Activity [7]: Non-toxic; Activity [23]: Toxic
COc1c(N2CCNC(C)C2)c(F)cc2c(=O)c(C(=O)O)cn(C3CC3)c12 (stereo not drawn) [GATIFLOXACIN] | 0.006 µg/mL (≈ 0.016 µM) |  | 0.05 µg/mL (≈ 0.133 µM) | 0.39 µg/mL (≈ 1.04 µM) | 0.2 µg/mL (≈ 0.533 µM) | 0.39 µg/mL (≈ 1.04 µM) | 0.2 µg/mL (≈ 0.533 µM) | 0.05 µg/mL (≈ 0.133 µM) | 0.2 µg/mL (≈ 0.533 µM) | 0.78 µg/mL (≈ 2.08 µM) |  |  |  |  | MIC50 [18]: 0.5 µg/mL (≈ 1.33 µM); MIC90 [18]: 0.5 µg/mL (≈ 1.33 µM); MIC50 [19]: 16 µg/mL (≈ 42.6 µM); MIC90 [19]: 32 µg/mL (≈ 85.2 µM); IC50 [10]: 22.5 µg/mL (≈ 59.9 µM); IC50 [12]: 765 µM; Ratio IC50 [24]: 12.2; Ratio IC50 [25]: 89.1; MIC50 [20]: 4 µg/mL (≈ 10.7 µM); MIC90 [20]: 32 µg/mL (≈ 85.2 µM); IC50 [26]: 8.58 µM; MIC50 [21]: 4 µg/mL (≈ 10.7 µM); MIC90 [21]: 64 µg/mL (≈ 170 µM); IC50 [13]: 1.85 µg/mL (≈ 4.93 µM)
